Experimental data reported in patent US20140155415A1, “BENZ[…] BENZODIOXINE COMPOUNDS THAT INTERACT WITH G[…] FOR THE TREATMENT OF DIABETES” (priority 2011, published 2014).

Legend:
[1] = biological target: T1, GK-GKRP (interaction between glucokinase and glucokinase regulatory protein) (Homo sapiens, UniProt Q14397); test: GK-GKRP Binding Assay (Binding), AlphaScreen; conditions: avi-tagged GKRP, GK-fluorescein, AlphaScreen beads, 1 μM sorbitol-6-phosphate; read-out: GK-GKRP IC50 (Binding)
T1 construct: made in house; host or cells: GKRP: baculovirus system
T1 sequence (Q14397 1-625): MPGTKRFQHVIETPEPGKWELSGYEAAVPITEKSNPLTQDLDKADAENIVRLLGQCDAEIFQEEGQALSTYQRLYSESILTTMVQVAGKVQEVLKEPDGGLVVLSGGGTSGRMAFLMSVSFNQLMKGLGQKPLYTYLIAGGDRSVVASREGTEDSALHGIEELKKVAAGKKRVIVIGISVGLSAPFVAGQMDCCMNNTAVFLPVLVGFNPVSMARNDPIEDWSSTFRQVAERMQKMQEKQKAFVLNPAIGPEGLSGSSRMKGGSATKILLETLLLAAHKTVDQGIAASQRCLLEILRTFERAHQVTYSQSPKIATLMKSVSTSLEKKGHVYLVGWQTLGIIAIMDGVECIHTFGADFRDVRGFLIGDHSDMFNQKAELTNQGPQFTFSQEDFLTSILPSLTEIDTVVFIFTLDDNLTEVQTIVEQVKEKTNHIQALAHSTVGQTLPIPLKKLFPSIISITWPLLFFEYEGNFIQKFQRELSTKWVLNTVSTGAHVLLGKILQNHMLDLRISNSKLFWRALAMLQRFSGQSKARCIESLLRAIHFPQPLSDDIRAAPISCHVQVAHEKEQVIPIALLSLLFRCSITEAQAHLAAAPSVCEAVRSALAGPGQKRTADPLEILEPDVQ
Procedure: GK-GKRP Binding Assay Protocol (Binding)
This assay is used to directly measure the interaction between glucokinase (GK) and glucokinase regulatory protein (GKRP). Begin by preparing the following solutions. Assay Buffer: 20 mM Tris, pH 7.5/0.05% BSA/1 mM DTT/1 μM sorbitol-6-phosphate. […] Combine the following reagents in a white 96-well half area plate. Pipette 14 μl of the diluted avi-tagged GKRP into each well. Add 1 μl of compound to be tested and incubate at room temperature for 20 minutes. After 20 minutes, add 5 μl of assay buffer containing 6 nM GK-fluorescein. […] Incubate in a dark room for 2 hours at room temperature. After 2 hours read the plate using an Envision plate reader (Perkin Elmer, Waltham Mass.).
Recombinant human glucokinase (hepatic) was purified and formulated in 50 mM Tris (pH 7.5), 150 mM NaCl and 20 mM glucose previous to labeling with fluorescein. […] Unreacted dye was removed by extensive dialysis into the final formulation buffer: 25 mM Tris (pH 7.2), 150 mM NaCl, 10% glycerol and 2 mM DTT. The human glucokinase regulatory protein construct was designed with a C-terminal avitag and was expressed in a baculovirus system. Purified GKRP was incubated overnight with recombinant biotin ligase in the presence of D-biotin, ATP and MgCl2. GKRP was isolated from reaction components by chromatography on a Superdex 200 size exclusion column into: 50 mM HEPES, 150 mM NaCl and 5 mM DTT. […] Proteins were quantitated according to their calculated molar extinction coefficients at A280 and were stored at −80° C.
(§1) In the Examples, the assays are referred to as “LCMS/MS” or “Binding.”

[2] = biological target: T2, GK-GKRP (glucokinase / glucokinase regulatory protein) (Homo sapiens, UniProt Q14397); test: GKRP LC MS/MS Biochemical Assay (LCMS/MS); conditions: formation of 13C-glucose-6-phosphate from 13C-glucose by LC MS/MS, human His-hepatic GK, fructose-6-phosphate
T2 sequence (Q14397 1-625): T1 sequence (Q14397 1-625)
Procedure: GKRP LC MS/MS Biochemical Assay (LCMS/MS)
This assay is used to directly measure the formation of ^13C-glucose-6-phosphate from ^13C-glucose by LC MS/MS. Begin by preparing the following solutions: Compound Buffer (CB): 50 mM Tris, pH 7.5/4 mM MgCl2/6% DMSO/fresh 10 mM DTT from 1M frozen stock. Enzyme Buffer (EB): 50 mM Tris, pH 7.5/4 mM MgCl2/6% DMSO/fresh 0.1% BSA/fresh 0.01% Brij-35 (10% BSA and 1% Brij-35 stock). GK (Glucokinase) Working Stock (5×): Dilute human His-hepatic GK to 30 nM in EB buffer. […] Seal the plate and incubate for 30 minutes at room temperature while mixing. After 30 minutes add 10 μl of GK Working Stock (5×). Re-seal the plate and incubate for another 30 minutes at room temperature while mixing. After the second 30 minutes, stop the reaction by the addition of 50 μl of 100% acetonitrile, seal, and mix for 5-10 minutes. Run 10 μl of this sample through the LC MS/MS (API 3200, Applied Biosystems, Carlsbad, Calif.). […]
as §1

Row | Compound | IC50 [1] | EC50 [2]
1 | CCc1ccccc1C(NS(=O)(=O)c1ccc2c(c1)OCCCO2)c1cc2ccccc2o1 (racemic) [Example 6, N-(1-benzofuran-2-yl(2-ethylphenyl)methyl)-3,4-dihydro-2H-1,5-benzodioxepine-7-sulfonamide] | 220 nM | 67 nM
2 | C=Cc1ccccc1C(NS(=O)(=O)c1ccc2c(c1)OCCCO2)c1cc2ccccc2o1 (racemic) [Example 7, N-(1-benzofuran-2-yl(2-ethenylphenyl)methyl)-3,4-dihydro-2H-1,5-benzodioxepine-7-sulfonamide] | 98 nM | 45 nM
3 | C#Cc1ccccc1C(NS(=O)(=O)c1ccc2c(c1)OCCCO2)c1cc2ccccc2o1 (racemic) [Example 8, N-(1-benzofuran-2-yl(2-ethynylphenyl)methyl)-3,4-dihydro-2H-1,5-benzodioxepine-7-sulfonamide] | 47 nM | 72 nM
4 | CC(C)c1ccccc1C(NS(=O)(=O)c1ccc2c(c1)OCCCO2)c1cc2ccccc2o1 (racemic) [Example 9, N-(1-benzofuran-2-yl(2-(1-methylethyl)phenyl)methyl)-3,4-dihydro-2H-1,5-benzodioxepine-7-sulfonamide] | 1100 nM | 280 nM
5 | CCCc1ccccc1C(NS(=O)(=O)c1ccc2c(c1)OCCCO2)c1cc2ccccc2o1 (racemic) [Example 11, N-(1-benzofuran-2-yl(2-propylphenyl)methyl)-3,4-dihydro-2H-1,5-benzodioxepine-7-sulfonamide] | 1800 nM | 1700 nM
6 | O=S(=O)(NC(c1cc2ccccc2o1)c1ccccc1C(F)(F)F)c1ccc2c(c1)OCCCO2 (racemic) [Example 12, N-(1-benzofuran-2-yl(2-(trifluoromethyl)phenyl)methyl)-3,4-dihydro-2H-1,5-benzodioxepine-7-sulfonamide] | 1000 nM | 320 nM
7 | O=S(=O)(NC(c1cccc(O)c1)c1cc2ccccc2o1)c1ccc2c(c1)OCCCO2 (racemic) [Example 13, N-(1-benzofuran-2-yl(3-hydroxyphenyl)methyl)-3,4-dihydro-2H-1,5-benzodioxepine-7-sulfonamide] | 2500 nM | 1800 nM
8 | Nc1cccc(C(NS(=O)(=O)c2ccc3c(c2)OCCCO3)c2cc3ccccc3o2)c1 (racemic) [Example 14, N-((3-aminophenyl)(1-benzofuran-2-yl)methyl)-3,4-dihydro-2H-1,5-benzodioxepine-7-sulfonamide] | 1200 nM | 1600 nM
9 | O=S(=O)(NC(c1cc2ccccc2o1)c1ccccc1CO)c1ccc2c(c1)OCCCO2 (racemic) [Example 15, N-(1-benzofuran-2-yl(2-(hydroxymethyl)phenyl)methyl)-3,4-dihydro-2H-1,5-benzodioxepine-7-sulfonamide] | 4600 nM | 1600 nM
10 | COc1ccccc1C(NS(=O)(=O)c1ccc2c(c1)OCCCO2)c1cc2ccccc2o1 (racemic) [Example 17, N-(1-benzofuran-2-yl(2-methoxyphenyl)methyl)-3,4-dihydro-2H-1,5-benzodioxepine-7-sulfonamide] | 170 nM | 95 nM
11 | O=S(=O)(NC(c1cc2ccccc2o1)c1ccccc1OC(F)(F)F)c1ccc2c(c1)OCCCO2 (racemic) [Example 18, N-(1-benzofuran-2-yl(2-(trifluoromethoxy)phenyl)methyl)-3,4-dihydro-2H-1,5-benzodioxepine-7-sulfonamide] | 970 nM | 340 nM
12 | O=S(=O)(NC(c1cc2ccccc2o1)c1ccccc1I)c1ccc2c(c1)OCCCO2 (racemic) [Example 21, N-(1-benzofuran-2-yl(2-iodophenyl)methyl)-3,4-dihydro-2H-1,5-benzodioxepine-7-sulfonamide] | 228 nM | 76 nM
13 | O=S(=O)(NC(c1cc2ccccc2o1)c1ccccc1Br)c1ccc2c(c1)OCCCO2 (racemic) [Example 22, N-(1-benzofuran-2-yl(2-bromophenyl)methyl)-3,4-dihydro-2H-1,5-benzodioxepine-7-sulfonamide] | 150 nM | 58 nM
14 | O=S(=O)(NC(c1ccsc1)c1cc2ccccc2o1)c1ccc2c(c1)OCCCO2 (racemic) [Example 32, N-(1-benzofuran-2-yl(3-thiophenyl)methyl)-3,4-dihydro-2H-1,5-benzodioxepine-7-sulfonamide] |  | 1400 nM

Continued, values first:

Row | IC50 [1] | EC50 [2] | Compound
15 | 1800 nM | 440 nM | Cc1cc(F)ccc1C(NS(=O)(=O)c1ccc2c(c1)OCCCO2)c1cc2ccccc2o1 (racemic) [Example 3, N-(1-benzofuran-2-yl(4-fluoro-2-methylphenyl)methyl)-3,4-dihydro-2H-1,5-benzodioxepine-7-sulfonamide]
16 | 1400 nM | 460 nM | Cc1ccc(F)cc1C(NS(=O)(=O)c1ccc2c(c1)OCCCO2)c1cc2ccccc2o1 (racemic) [Example 4, N-(1-benzofuran-2-yl(5-fluoro-2-methylphenyl)methyl)-3,4-dihydro-2H-1,5-benzodioxepine-7-sulfonamide]
17 | 1000 nM | 790 nM | Cc1cccc(F)c1C(NS(=O)(=O)c1ccc2c(c1)OCCCO2)c1cc2ccccc2o1 (racemic) [Example 5, N-(1-benzofuran-2-yl(2-fluoro-6-methylphenyl)methyl)-3,4-dihydro-2H-1,5-benzodioxepine-7-sulfonamide]
18 | 4100 nM | 3800 nM | Cc1cccc(C)c1C(NS(=O)(=O)c1ccc2c(c1)OCCCO2)c1cc2ccccc2o1 (racemic) [Example 10, N-(1-benzofuran-2-yl(2,6-dimethylphenyl)methyl)-3,4-dihydro-2H-1,5-benzodioxepine-7-sulfonamide]
19 | 160 nM | 38 nM | CSc1ccccc1C(NS(=O)(=O)c1ccc2c(c1)OCCCO2)c1cc2ccccc2o1 (racemic) [Example 19, N-(1-benzofuran-2-yl(2-(methylsulfanyl)phenyl)methyl)-3,4-dihydro-2H-1,5-benzodioxepine-7-sulfonamide]
20 | 220 nM | 70 nM | O=S(=O)(NC(c1cc2ccccc2o1)c1ccccc1Cl)c1ccc2c(c1)OCCCO2 (racemic) [Example 20, N-(1-benzofuran-2-yl(2-chlorophenyl)methyl)-3,4-dihydro-2H-1,5-benzodioxepine-7-sulfonamide]
21 | 490 nM | 450 nM | O=S(=O)(NC(c1cc2ccccc2o1)c1ccccc1F)c1ccc2c(c1)OCCCO2 (racemic) [Example 23, N-(1-benzofuran-2-yl(2-fluorophenyl)methyl)-3,4-dihydro-2H-1,5-benzodioxepine-7-sulfonamide]
22 |  | > 50000 nM | Cc1ccccc1[C@H](NS(=O)(=O)c1ccc2c(c1)OCCCO2)c1cc2ccccc2o1 (single isomer, unassigned) [Example 2 Peak #1]
23 |  | 43 nM | Cc1ccccc1[C@@H](NS(=O)(=O)c1ccc2c(c1)OCCCO2)c1cc2ccccc2o1 (single isomer, unassigned) [Example 2 Peak #2]
